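Step 1: Grow cells in 96-well plates. Step 2: Expose to compound for 48 hours at 5 concentrations. Step 3: Interpolate endpoints linearly; if unreached, use highest concentration. At the GI50, growth is halved. TGI marks complete inhibition of growth.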
How the values were obtained:
Assay in all cases: NCI anticancer screen, dose series, 48 h
[1] = system: 786-0 renal
[2] = system: A498 renal
[3] = system: A549 NSCLC
[4] = system: ACHN renal
[5] = system: BT-549 breast
[6] = system: CAKI-1 renal
[7] = system: CCRF-CEM leukemia
[8] = system: COLO 205 colon
[9] = system: DU-145 prostate
[10] = system: EKVX NSCLC
[11] = system: HCC-2998 colon
[12] = system: HCT-116 colon
[13] = system: HCT-15 colon
[14] = system: HL-60(TB) leukemia
[15] = system: HOP-62 NSCLC
[16] = system: HOP-92 NSCLC
[17] = system: HS 578T breast
[18] = system: HT29 colon
[19] = system: IGROV1 ovarian
[20] = system: K-562 leukemia
[21] = system: KM12 colon
[22] = system: LOX IMVI melanoma
[23] = system: M14 melanoma
[24] = system: MALME-3M melanoma
[25] = system: MCF7 breast
[26] = system: MDA-MB-231 breast
[27] = system: MDA-MB-435
[28] = system: MOLT-4 leukemia
[29] = system: NCI-H226 lung
[30] = system: NCI-H23 lung
[31] = system: NCI-H460 lung
[32] = system: NCI-H522 lung
[33] = system: NCI/ADR-RES ovarian
[34] = system: OVCAR-3 ovarian
[35] = system: OVCAR-4 ovarian
[36] = system: OVCAR-5 ovarian
[37] = system: OVCAR-8 ovarian
[38] = system: PC-3 prostate
[39] = system: RPMI-8226 leukemia
[40] = system: RXF 393 renal
[41] = system: SF-268 CNS
[42] = system: SF-295 CNS
[43] = system: SF-539 CNS
[44] = system: SK-MEL-2 melanoma
[45] = system: SK-MEL-28 melanoma
[46] = system: SK-MEL-5 melanoma
[47] = system: SK-OV-3 ovarian
[48] = system: SN12C renal
[49] = system: SNB-19 CNS
[50] = system: SW-620 colon
[51] = system: T-47D breast
[52] = system: TK-10 renal
[53] = system: U251 CNS
[54] = system: UACC-257 melanoma
[55] = system: UACC-62 melanoma
[56] = system: UO-31 renal

Which GI50 [1] does the source give for COc1cc(/C=C/c2cc(/C=C/c3ccc(O)c(OC)c3)n(-c3c(Cl)cccc3Cl)c(=O)n2)ccc1O here?
The GI50 was 2.74 µM.

What about the TGI [1] of the same compound?
The TGI was 8.51 µM.

And the GI50 [2]?
Its GI50 is 3.79 µM.

What about the TGI [2] of the same compound?
Its TGI is 13.2 µM.

What about the GI50 [3] of the same compound?
The GI50 was 4.03 µM.

What about the TGI [3] of the same compound?
The TGI was 15 µM.

And the GI50 [4]?
Its GI50 is 2.84 µM.

And the TGI [4]?
Its TGI is 12.7 µM.

And the GI50 [5]?
The GI50 was 2.07 µM.

And the TGI [5]?
Its TGI is 6.67 µM.

What about the GI50 [6] of the same compound?
Its GI50 is 14.6 µM.

And the TGI [6]?
Its TGI is 30 µM.

What about the GI50 [7] of the same compound?
Its GI50 is 3.21 µM.

What about the TGI [7] of the same compound?
Its TGI is 70.6 µM.

And the GI50 [8]?
The GI50 was 2.84 µM.

And the TGI [8]?
The TGI was 8.95 µM.

And the GI50 [9]?
Its GI50 is 3.48 µM.

And the TGI [9]?
The TGI was 13 µM.

And the GI50 [10]?
The GI50 was 3.26 µM.

And the TGI [10]?
Its TGI is 14.8 µM.

What about the GI50 [11] of the same compound?
The GI50 was 1.83 µM.

And the TGI [11]?
Its TGI is 3.53 µM.

What about the GI50 [12] of the same compound?
Its GI50 is 1.31 µM.

And the TGI [12]?
Its TGI is 5.25 µM.

And the GI50 [13]?
Its GI50 is 2.44 µM.

What about the TGI [13] of the same compound?
The TGI was 9.66 µM.

And the GI50 [14]?
The GI50 was 2.64 µM.

What about the TGI [14] of the same compound?
Its TGI is 14.4 µM.

What about the GI50 [15] of the same compound?
The GI50 was 3.41 µM.

What about the TGI [15] of the same compound?
The TGI was 12.8 µM.

And the GI50 [16]?
Its GI50 is 4.22 µM.

What about the TGI [16] of the same compound?
Its TGI is 16.4 µM.

What about the GI50 [17] of the same compound?
The GI50 was 5.48 µM.

And the TGI [17]?
Its TGI is > 100 µM.

What about the GI50 [18] of the same compound?
Its GI50 is 1.77 µM.

And the TGI [18]?
Its TGI is 3.36 µM.

And the GI50 [19]?
Its GI50 is 3.01 µM.

And the TGI [19]?
Its TGI is 12.3 µM.

What about the GI50 [20] of the same compound?
Its GI50 is 3.11 µM.

And the TGI [20]?
The TGI was > 100 µM.

What about the GI50 [21] of the same compound?
The GI50 was 2.02 µM.

What about the TGI [21] of the same compound?
Its TGI is 5.27 µM.

What about the GI50 [22] of the same compound?
Its GI50 is 1.68 µM.

What about the TGI [22] of the same compound?
The TGI was 3.57 µM.

What about the GI50 [23] of the same compound?
Its GI50 is 2.38 µM.

What about the TGI [23] of the same compound?
Its TGI is 6.87 µM.

What about the GI50 [24] of the same compound?
The GI50 was 3.88 µM.

And the TGI [24]?
Its TGI is 15.7 µM.

And the GI50 [25]?
Its GI50 is 2 µM.

And the TGI [25]?
The TGI was 11 µM.

What about the GI50 [26] of the same compound?
The GI50 was 3.65 µM.

And the TGI [26]?
Its TGI is 15.1 µM.

And the GI50 [27]?
Its GI50 is 1.63 µM.

What about the TGI [27] of the same compound?
The TGI was 5.98 µM.

What about the GI50 [28] of the same compound?
The GI50 was 3.38 µM.

And the TGI [28]?
The TGI was 22.6 µM.

What about the GI50 [29] of the same compound?
Its GI50 is 3.27 µM.

And the TGI [29]?
The TGI was 9.44 µM.

And the GI50 [30]?
Its GI50 is 2.38 µM.

What about the TGI [30] of the same compound?
The TGI was 6.68 µM.

What about the GI50 [31] of the same compound?
Its GI50 is 3.39 µM.

What about the TGI [31] of the same compound?
Its TGI is 11.8 µM.

And the GI50 [32]?
The GI50 was 1.55 µM.

And the TGI [32]?
The TGI was 3.23 µM.

What about the GI50 [33] of the same compound?
Its GI50 is 3.53 µM.

What about the TGI [33] of the same compound?
Its TGI is 22 µM.

What about the GI50 [34] of the same compound?
The GI50 was 3.19 µM.

And the TGI [34]?
Its TGI is 12.1 µM.

What about the GI50 [35] of the same compound?
Its GI50 is 4.61 µM.

What about the TGI [35] of the same compound?
Its TGI is 16.9 µM.

And the GI50 [36]?
The GI50 was 2.76 µM.

And the TGI [36]?
Its TGI is 11 µM.

What about the GI50 [37] of the same compound?
The GI50 was 3.34 µM.

And the TGI [37]?
Its TGI is 10.5 µM.

What about the GI50 [38] of the same compound?
The GI50 was 4.68 µM.

What about the TGI [38] of the same compound?
The TGI was 25.3 µM.

And the GI50 [39]?
The GI50 was 2.96 µM.

And the TGI [39]?
The TGI was 22.7 µM.

What about the GI50 [40] of the same compound?
Its GI50 is 2.18 µM.

What about the TGI [40] of the same compound?
The TGI was 4.92 µM.

What about the GI50 [41] of the same compound?
The GI50 was 3.12 µM.

And the TGI [41]?
Its TGI is 13.7 µM.

What about the GI50 [42] of the same compound?
The GI50 was 2.87 µM.

And the TGI [42]?
The TGI was 9.52 µM.

What about the GI50 [43] of the same compound?
Its GI50 is 2.18 µM.

And the TGI [43]?
The TGI was 6.92 µM.

And the GI50 [44]?
Its GI50 is 3.3 µM.

What about the TGI [44] of the same compound?
The TGI was 12.9 µM.

And the GI50 [45]?
The GI50 was 2.74 µM.

And the TGI [45]?
The TGI was 10.1 µM.

And the GI50 [46]?
Its GI50 is 2.18 µM.

What about the TGI [46] of the same compound?
Its TGI is 4.86 µM.

What about the GI50 [47] of the same compound?
Its GI50 is 2.78 µM.

What about the TGI [47] of the same compound?
Its TGI is 10.6 µM.

What about the GI50 [48] of the same compound?
The GI50 was 4.82 µM.

What about the TGI [48] of the same compound?
The TGI was 19.5 µM.

And the GI50 [49]?
The GI50 was 3.54 µM.

And the TGI [49]?
The TGI was 13.2 µM.

What about the GI50 [50] of the same compound?
The GI50 was 3.11 µM.

And the TGI [50]?
The TGI was 10.5 µM.

And the GI50 [51]?
Its GI50 is 3.44 µM.

What about the TGI [51] of the same compound?
The TGI was 22.7 µM.

What about the GI50 [52] of the same compound?
The GI50 was 2.91 µM.

What about the TGI [52] of the same compound?
The TGI was 10.1 µM.

What about the GI50 [53] of the same compound?
Its GI50 is 2.37 µM.

What about the TGI [53] of the same compound?
Its TGI is 6.36 µM.

What about the GI50 [54] of the same compound?
The GI50 was 3.32 µM.

What about the TGI [54] of the same compound?
The TGI was 11.3 µM.

What about the GI50 [55] of the same compound?
Its GI50 is 2.59 µM.

And the TGI [55]?
Its TGI is 7.42 µM.

And the GI50 [56]?
The GI50 was 2.74 µM.

What about the TGI [56] of the same compound?
The TGI was 12.3 µM.

From PubChem BioAssay (NCI)
